In patent US4443448A, “Indane derivatives, pharmaceutical compositions thereof and method of preparation” (priority 1980, dated 1984):
Like-named read-outs stand apart in the source and are kept apart here.

Assays:
[1] = Mouse grid shock (analgesia); type: in vivo; conditions: mice, minimal effective dose, in mg/kg
Experimental: The mouse grid consists of a perspex cage with wire grid bottom and a perspex lid, on which is placed a microphone sensitive to the frequency of a mouse squeak. A stimulator with motordriven potentiometer applies a sequence of square wave impulses of continuously increasing milliamperage to the grid. Frequency of impulses 20 cycles/sec., duration 5 msec. Milliamperage is recorded on a digital amperemeter connected to the stimulator. Activation of the microphone by a mouse-squeak cuts off the current and the final milliamperage appears on the meter.
Five mice are used for each dose level. Each mouse serves as its own control.
Prior to the administration of test substance the animals are placed on the grid one at a time, and the pain threshold is determined by increasing the current intensity until the mouse squeaks. The pain threshold may be read on the milliamperemeter. Fifteen minutes and 30 minutes after administration of test substance the mice are tested again and the pain thresholds recorded.
Analgesic effect is present, when the pain threshold is increased over the pre-dosing value (control value). The results are stated as % increase in pain threshold calculated on the basis of the control value.
The registration can also be done as an on-line procedure. In this case the punching instruction and punching cards will be provided automatically and the results will be registered as a minimal effective dose (MED) determined after van der Waerdens X-test.

[2] = system: 3H-DA uptake in striatal synaptosomes; experiment: 3H-DA uptake in striatal synaptosomes in vitro; type: biochemical, rats; conditions: rat striatal synaptosomes, 12.5 nM 3H-DA, 37° C., pH 7.4
Experimental: ^3 H-DA uptake in striatal synaptosomes in vitro
0.32 M sucrose containing 1 mM Nialamide
Millipore filters (HAWPO 2500, 0.45μ)
3,4-dihydroxyphenylethylamine[ethyl-1-^3 H(N)]=^3 H-DA spc. act. app. 15 Ci/mmol, New England Nuclear Thomas Tissue Grinder, clearance 0.004-0.006 inch.
Rats are killed by a blow to their head, exsanguinated and their brains removed. The brain is placed on a precooled glassplate, and the two corpura striata are dissected out and gently homogenized in 40 volumes of ice cold 0.32 M sucrose containing 1 mM of nialamide using a hand homogenizer with teflon pestle. The P2 -fraction (synaptosomal fraction) is obtained by centrifugation (600 g, 10 min., 25000 g, 55 min. 4° C.) and suspended in 40 volumes of a modified Krebs-Ringer-phosphate buffer, pH 7.4. To 200 μl of the synaptosomal fraction on ice are added 3700 μl modified Krebs-Ringer-phosphate buffer--containing test compounds. After a preincubation at 37° C. for 5 min. […] The incubation is terminated by filtering the samples under vacuum through Millipore filters with a wash of 5 ml buffer containing 10 μM of unlabelled DA. After solubilizing the filters in 1 ml of cellosolve the radioactivity is determined by liquid scintillation counting after the addition of 10 ml of Insta-Gel. The unspecific binding of ^3 H-DA is determined by incubating control samples on ice instead of at 37° C.
All experiments are performed in triplicate.
The mean of all control samples and ice samples are calculated. […] The IC50-values are determined as the concentrations, at which the uptake are 50 percent of the uptake in control samples-uptake in ice samples.

methylphenidate = experiment: Methylphenidate antagonism in mice; type: in vivo; conditions: for ED50: Mus musculus, ip
Experimental: Methylphenidate antagonism (ED50 mg/kg i.p.)
(§1) Perspex observation cages without bottom and lid, consisting of 5 sections each measuring 12×25×30 cm.
3×2 mice are used for each dose level. Two or 24 hours after injection of test substance, methylphenidate, 60 mg/kg, is injected s.c. After administration of methylphenidate the mice are placed in the observation cages, 2 in each cage, where they remain for exactly 1 hour. The cages were placed on corrugated paper, the corrugations facing upwards. It is examined whether the mice have been biting the corrugated paper or not. […] If one or more of the control pairs have not been biting, the test has to be repeated on a new set of mice.
The result is stated in fractions: 0/3, 1/3, 2/3 and 3/3 where 0, 1, 2 and 3 are the number of pairs which have not been biting on receipt of the dose in question.

in vivo [3] = experiment: in vivo
in vivo [4] = experiment: in vivo; parameters: species or system rats; conditions: for Ratio catalep./Amphet.: catalepsy ED50 / amphetamine antagonism ED50; for ED50: rat, in vivo, po, read-out: Catalep. (catalepsy wire mesh, rat, max, ED50)
Experimental: A vertical wire netting (50 cm×49 cm). The meshes (openings) of the netting are square (1 cm×1 cm). The wire diameter is 2 mm.
The animals are labeled and used in groups of five. The test substance is administered orally (p.o) at 4 dose levels selected from the fixed dose scale.
The animals are placed in the middle of the vertical wire netting 60, 120, 180, 240, 300 and 360 minutes after administration of the test compound. The animals are considered cataleptic when they remain immobile during a period of 15 seconds.
This cataleptic reaction is designated +. If the rats are "atonic" and passively slide down the wire mesh they are considered not cataleptic. If the animals climb up and down the wire mesh they are nor cataleptic.
In both situations the designation--is used.

amphetamine = experiment: Amphetamine antagonism in rats; type: in vivo; conditions: for ED50: Rattus norvegicus, po, read-out: Amphetamine antag. ED50 p.o.
Experimental: Amphetamine antagonism (ED50 mg/kg i.p.)
as §1
The test substance is given p.o. in a reasonable dose based on the determined LD50. Two or 24 hours later an intravaneous injection of amphetamine sulphate 13.6 mg/kg (10 mg/kg amphetamine base) is given, after which the rats are placed individually in the cages. The cages are placed on white corrugated paper. Five rats are used for each dose level. Observations are made after 55 minutes and 65 minutes-observation time: 1 minute. The animals are observed for stereotypy (movements of the head, compulsive gnawing). […] If the compound has full antagonistic effect another group of rats is used at a lower dose. […] The result is stated as fractions: 0/5, 1/5, 2/5, 3/5, 4/5 and 5/5, where 0, 1, 2, 3, 4 and 5 indicate the number of rats which have not shown stereotypy at the dose in question. The results are calculated as ED50 in mg/kg.

[5] = 2 h, read-out: MePh antag. ED50 2 hr i.p., mice, test substance i.p., 2 hr before methylphenidate 60 mg/kg s.c.
[6] = rats, p.o., strongest effect within first 6 hours
[7] = rats, p.o., amphetamine 10 mg/kg base i.v.
[8] = read-out: MePh antag. ED50 2 hr i.p., mice, test substance i.p., 2 hr before methylphenidate 60 mg/kg s.c.

| Compound | MED Grid Shock [1] | IC50 [2] | Ratio catalep./Amphet. (in vivo [4]) | ED50 (in vivo [4]; [6]) | also measured |
| --- | --- | --- | --- | --- | --- |
| OCCCN1CCN([C@@H]2C[C@@H](c3ccc(F)cc3)c3ccc(F)cc32)CC1 (relative stereo) [Lu 14-036] | 5 | 73 nM | 1.6 | 3.7 mg/kg | ED50 (methylphenidate; [5]): 1.6 mg/kg; LD50 (in vivo [3]; iv): 129 mg/kg; ED50 (amphetamine; [7]): 2.3 mg/kg |
| OCCCN1CCN([C@@H]2C[C@H](c3ccc(F)cc3)c3ccc(F)cc32)CC1 (relative stereo) [Lu 14-048] | – | 46 nM | – | – | – |
| CN1CCN([C@@H]2C[C@@H](c3ccccc3)c3ccc(F)cc32)CC1 (relative stereo) [Lu 14-067] | 5 | 68 nM | – | – | ED50 (methylphenidate; [5]): > 40 mg/kg |
| OCCN1CCN([C@@H]2C[C@@H](c3ccc(F)cc3)c3ccc(Cl)cc32)CC1 (relative stereo) [Lu 14-068] | 0.31 | 84 nM | 0.9 | 1.5 mg/kg | ED50 (methylphenidate; [5]): 1.3 mg/kg; LD50 (in vivo [3]; iv): 94 mg/kg; ED50 (amphetamine; [7]): 1.6 mg/kg |
| CN1CCN([C@@H]2C[C@H](c3ccc(Cl)c(Cl)c3)c3ccccc32)CC1 (relative stereo) [Lu 17-109] | – | 4 nM | – | – | – |
| CN1CCN([C@@H]2C[C@@H](c3ccc(Cl)c(Cl)c3)c3ccccc32)CC1 (relative stereo) [Lu 17-110] | – | 11 nM | – | – | – |
| OCCN1CCN([C@@H]2C[C@H](c3ccc(Cl)c(Cl)c3)c3ccccc32)CC1 (relative stereo) [Lu 17-132] | – | 12 nM | – | – | – |
| OCCN1CCN([C@@H]2C[C@@H](c3ccc(Cl)c(Cl)c3)c3ccccc32)CC1 (relative stereo) [Lu 17-133] | – | 3 nM | – | – | – |
| OCCCCN1CCN([C@@H]2C[C@@H](c3ccc(F)cc3)c3ccc(F)cc32)CC1 (relative stereo) [Lu 18-080] | < 1.3 | 25 nM | 6.2 | 21.8 mg/kg | ED50 (methylphenidate; [5]): 2.9 mg/kg; LD50 (in vivo [3]; iv): 80 mg/kg; ED50 (amphetamine; [7]): 3.5 mg/kg |
| OCCCN1CCN([C@@H]2C[C@@H](c3ccc(Cl)c(Cl)c3)c3ccccc32)CC1 (relative stereo) [Lu 18-081] | – | 15 nM | – | – | – |
| OCCCN1CCN([C@@H]2C[C@H](c3ccc(Cl)c(Cl)c3)c3ccccc32)CC1 (relative stereo) [Lu 18-082] | – | 6 nM | – | – | – |
| OCCCCN1CCN([C@@H]2C[C@H](c3ccc(Cl)c(Cl)c3)c3ccccc32)CC1 (relative stereo) [Lu 18-120] | – | 5 nM | – | – | – |
| OCCCCN1CCN([C@@H]2C[C@@H](c3ccc(Cl)c(Cl)c3)c3ccccc32)CC1 (relative stereo) [Lu 18-121] | – | 11 nM | – | – | – |
| OCC(O)CN1CCN(C2CC(c3ccc(F)cc3)c3ccc(F)cc32)CC1 (single isomer, unassigned) [Lu 17-079] | – | 12 nM | – | – | – |
| OCC(O)CN1CCN(C2CC(c3ccc(Cl)c(Cl)c3)c3ccccc32)CC1 (single isomer, unassigned) [Lu 18-128] | – | 12 nM | – | – | – |
| OCC(O)CN1CCN(C2CC(c3ccc(Cl)c(Cl)c3)c3ccccc32)CC1 (single isomer, unassigned) [Lu 18-129] | – | 14 nM | – | – | – |
| CN1CCN(C2CC(c3ccc(F)cc3)c3ccc(F)cc32)CC1 (single isomer, unassigned; (-)) [Lu 17-152, (-) 1-Methyl-4-(3-(4'-fluorophenyl)-6-fluoro-1-indanyl)piperazine] | 5 | 88 nM | – | – | MePh antag. ED50 2 hr i.p. (methylphenidate; mice, test substance i.p., 2 hr before methylphenidate 60 mg/kg s.c., 120 min): 17 mg/kg; Catalep. (catalepsy wire mesh, rat, max, ED50) (in vivo [4]; [6]): > 320 mg/kg; Amphetamine antag. ED50 p.o. (amphetamine; [7]): > 80 mg/kg |
| CC(O)CN1CCN(C2CC(c3ccc(F)cc3)c3ccc(F)cc32)CC1 (stereo not drawn) [Lu 17-144, 1-(2-hydroxy-1-propyl)-4-(3-(4'-fluorophenyl)-6-fluoro-1-indanyl)piperazine] | – | 18 nM | – | – | – |
| OCC(O)CN1CCN(C2CC(c3ccc(F)cc3)c3ccc(C(F)(F)F)cc32)CC1 (stereo not drawn) [Lu 18-063] | 1.25 | – | 3.2 | 0.38 mg/kg | ED50 (methylphenidate; [5]): 0.4 mg/kg; LD50 (in vivo [3]; iv): 57 mg/kg; ED50 (amphetamine; [7]): 0.12 mg/kg |
| CN(C)CCCN1c2ccccc2Sc2ccc(Cl)cc21 [chlorpromazine, reference compound] | 5 | – | 1.19 | 25 mg/kg | ED50 (methylphenidate; [8]): 5.6 mg/kg; LD50 (in vivo [3]; iv): 56.5 mg/kg; ED50 (amphetamine): 21 mg/kg |
| OCCN1CCN(CCCN2c3ccccc3Sc3ccc(C(F)(F)F)cc32)CC1 [fluphenazine, reference compound] | 2.5-5 | – | 0.43 | 0.3 mg/kg | ED50 (methylphenidate; [5]): 0.04 mg/kg; LD50 (in vivo [3]; iv): 98 mg/kg; ED50 (amphetamine; [7]): 0.7 mg/kg |
| O=C(CCCN1CCC(O)(c2ccc(Cl)cc2)CC1)c1ccc(F)cc1 [haloperidol, reference compound] | < 5 | – | 1.0 | 0.4 mg/kg | ED50 (methylphenidate; [8]): 0.04 mg/kg; LD50 (in vivo [3]; ip): 226 mg/kg; ED50 (amphetamine): 0.4 mg/kg |
